# Test results as given in patent publication US20240342292A1, “Compounds for the Degradation of EGFR Kinase” (BeiGene Switzerland GmbH, priority 2021, published 2024).
# Experiments:
# L858R/T790M/C797S EGFR = target: T1, L858R/T790M/C797S EGFR (Homo sapiens, UniProt P00533, C797S/L858R/T790M); assay: EGFR degradation HTRF assay in H1975-clone #25 (LTC) cells; assay type: cell-based; details: 16h treatment; for DC50: H1975 # 25-LTC (L858R/T790M/C797S), HTRF; for Dmax: NCI-H1975, H1975 # 25-LTC (L858R/T790M/C797S), maximum percentage of degradation
# T1 construct: expressed in transfected cells; host or cells: H1975 clone #25 (lentiviral over-expression, endogenous EGFR knocked out by sgRNA)
# Outline: (§1)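 DC50 from a four-parameter fit of HTRF signal. H1975 mutant-EGFR clones with endogenous EGFR knocked out; 16 h treatment, 10 uM top, 5-fold × 8.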
# Del19/T790M/C797S EGFR = assay: EGFR degradation HTRF assay in H1975-clone #28 (DTC) cells; assay type: cell-based; details: H1975 # 28 DTC (Del19/T790M/C797S), 16h treatment; for DC50: HTRF; for Dmax (%): maximum percentage of degradation
# Outline: as §1
# T1 sequence (P00533 25-1210 T790M/C797S/L858R): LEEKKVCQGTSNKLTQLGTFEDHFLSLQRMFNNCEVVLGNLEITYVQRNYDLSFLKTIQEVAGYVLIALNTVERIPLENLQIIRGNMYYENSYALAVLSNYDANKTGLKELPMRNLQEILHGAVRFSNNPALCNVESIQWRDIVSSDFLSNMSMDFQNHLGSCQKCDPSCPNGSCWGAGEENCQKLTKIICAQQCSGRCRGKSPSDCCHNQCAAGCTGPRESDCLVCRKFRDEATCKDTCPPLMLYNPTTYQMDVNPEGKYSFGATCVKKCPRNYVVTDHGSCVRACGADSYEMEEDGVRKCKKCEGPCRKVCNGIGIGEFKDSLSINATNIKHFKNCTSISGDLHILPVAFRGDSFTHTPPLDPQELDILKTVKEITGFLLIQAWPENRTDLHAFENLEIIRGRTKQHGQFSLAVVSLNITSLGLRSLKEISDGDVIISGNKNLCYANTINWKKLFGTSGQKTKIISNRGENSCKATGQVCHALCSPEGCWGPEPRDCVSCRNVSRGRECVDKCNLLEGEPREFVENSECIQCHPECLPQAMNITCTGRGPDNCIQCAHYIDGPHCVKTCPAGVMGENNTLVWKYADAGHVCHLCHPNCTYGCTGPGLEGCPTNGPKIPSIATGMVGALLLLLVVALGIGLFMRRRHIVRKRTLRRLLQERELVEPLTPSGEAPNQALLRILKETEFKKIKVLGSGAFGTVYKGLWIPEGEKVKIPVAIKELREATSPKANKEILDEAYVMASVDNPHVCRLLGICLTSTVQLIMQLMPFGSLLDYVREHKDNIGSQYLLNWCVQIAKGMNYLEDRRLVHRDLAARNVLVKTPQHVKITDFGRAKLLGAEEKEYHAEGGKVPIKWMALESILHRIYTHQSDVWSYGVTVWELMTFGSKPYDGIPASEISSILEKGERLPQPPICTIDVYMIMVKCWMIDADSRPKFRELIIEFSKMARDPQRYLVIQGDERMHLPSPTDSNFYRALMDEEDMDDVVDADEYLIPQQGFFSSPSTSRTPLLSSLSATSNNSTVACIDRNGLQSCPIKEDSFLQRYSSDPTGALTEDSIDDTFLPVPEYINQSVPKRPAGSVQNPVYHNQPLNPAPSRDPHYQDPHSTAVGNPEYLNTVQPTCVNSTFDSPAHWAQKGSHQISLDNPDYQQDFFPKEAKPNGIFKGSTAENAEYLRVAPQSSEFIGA
SMILES,DC50 (L858R/T790M/C797S EGFR) [nM],Dmax (L858R/T790M/C797S EGFR) [%],DC50 (Del19/T790M/C797S EGFR) [nM],Dmax (%) (Del19/T790M/C797S EGFR)
"Cc1cc2cc(n1)-c1cnn(C)c1OCCC[C@@H](C)CN1/C(=N/C2=O)Nc2cc(C)c(C(=O)N(C)C3CCN(CCc4cc(F)c([C@H]5CCC(=O)NC5=O)c(F)c4)CC3)cc21 [Example 336, (R,E)-N-(1-(4-((R)-2,6-dioxopiperidin-3-yl)-3,5-difluorophenethyl)piperidin-4-yl)-N,1^1,2^6,5^5,7-penta methyl-3-oxo-5^2,5^3-dihydro-1^1H,5^1H-11-oxa-4-aza-5(2,1)-benzo[d]imidazola-2(2,4)-pyridina-1(4,5)-pyrazolacycloundecaphane-5^6-carboxamide]",0.386,88.4,0.304,72.28
"Cc1cc2cc(n1)-c1cnn(C)c1OCCC[C@@H](C)CN1/C(=N/C2=O)Nc2ccc(N3CCN(C4CCN(c5cc(F)c([C@H]6CCC(=O)NC6=O)c(F)c5)CC4)[C@H](C)C3)cc21 [Example 388, (R)-3-(2,6-difluoro-4-(4-((R)-2-methyl-4-((R,E)-1^1,2^6,7-trimethyl-3-oxo-5^2,5^3-dihydro-1^1H,5^1H-11-oxa-4-aza-5(2,1)-benzo[d]imidazola-2(2,4)-pyridina-1(4,5)-pyrazolacycloundecaphane-5^6-yl)piperazin-1-yl)piperidin-yl)phenyl)piperidine-2,6-dione]",1.11,86.5,0.776,80.94
"Cc1cc2cc(n1)-c1cnn(C)c1OCCC[C@@H](C)CN1/C(=N/C2=O)Nc2ccc(N3CCN(CCC4CCN(c5cc(F)c([C@H]6CCC(=O)NC6=O)c(F)c5)CC4)CC3=O)cc21 [Example 437, (R)-3-(2,6-difluoro-4-(4-(2-(3-oxo-4-((R,E)-1^1,2^6,7-trimethyl-3-oxo-5^2,5^3-dihydro-1^1H,5^1H-11-oxa-4-aza-5(2,1)-benzo[d]imidazola-2(2,4)-pyridina-1(4,5)-pyrazolacycloundecaphane-5^6-yl)piperazin-1-yl)ethyl)piperidin-1-yl)phenyl)piperidine-2,6-dione]",1.01,91,0.534,88.76
"Cc1cc2cc(n1)-c1cnn(C)c1OCCC[C@@H](C)CN1/C(=N/C2=O)Nc2ccc(CN3C4CCC3CN(C(=O)[C@@H]3CCN(c5cc(F)c([C@H]6CCC(=O)NC6=O)c(F)c5)C3)C4)cc21 [Example 187, (3R)-3-(2,6-difluoro-4-((3R)-3-(8-(((R,E)-1^1,2,7-trimethyl-3-oxo-5^2,5^3-dihydro-1^1H,5^1H-11-oxa-4-aza-5(2,1)-benzo[d]imidazola-2(2,4)-pyridina-1(4,5)-pyrazolacycloundecaphane-5^6-yl)methyl)-3,8-diazabicyclo[3.2.1]octane-3-carbonyl)pyrrolidin-1-yl)phenyl)piperidine-2,6-dione]",1.01,86.1,1.8,80.62
"Cc1cc2cc(n1)-c1cnn(C)c1OCCC[C@@H](C)CN1/C(=N/C2=O)Nc2ccc(CN3CCN(C(=O)[C@@H]4CCN(c5cc(F)c([C@H]6CCC(=O)NC6=O)c(F)c5)C4)C[C@@H]3CO)cc21 [Example 195, (R)-3-(2,6-difluoro-4-((R)-3-((R)-3-(hydroxymethyl)-4-(((R,E)-1^1,2^5,7-trimethyl-3-oxo-5^2,5^3-dihydro-1^1H,5^1H-11-oxa-4-aza-5(2,1)-benzo[d]imidazola-2(2,4)-pyridina-(4,5)-pyrazolacycloundecaphane-5^6-yl)methyl)piperazine-1-carbonyl)pyrrolidin-1-yl)phenyl)piperidine-2,6-dione]",0.731,85.5,0.712,76.37
